Measurements reported in patent US6503534B1, “Pharmaceutical compositions for prolonged peptide release and preparation method” (Societe de Conseils de Recherches et d'Applications …, priority 1998, dated 2003).

Experiment: Measurement of the specific surface area (B.E.T method)
Format: physicochemical
Details: lanreotide acetate recovered after flash freezing and lyophilization
Experimental: For all the following examples, the specific surface area of the peptide salt was determined by the so-called B.E.T method (absorption of a nitrogen monolayer on the active substance), a method well known to a person skilled in the art.

SMILES | Specific surface area obtained [m^2/g]
CC(C)[C@@H]1NC(=O)[C@H](CCCCN)NC(=O)[C@@H](Cc2c[nH]c3ccccc23)NC(=O)[C@H](Cc2ccc(O)cc2)NC(=O)[C@@H](NC(=O)[C@H](N)Cc2ccc3ccccc3c2)CSSC[C@@H](C(=O)N[C@H](C(N)=O)[C@@H](C)O)NC1=O [Example 4, lanreotide acetate] | 43
CC(C)[C@@H]1NC(=O)[C@H](CCCCN)NC(=O)[C@@H](Cc2c[nH]c3ccccc23)NC(=O)[C@H](Cc2ccc(O)cc2)NC(=O)[C@@H](NC(=O)[C@H](N)Cc2ccc3ccccc3c2)CSSC[C@@H](C(=O)N[C@H](C(N)=O)[C@@H](C)O)NC1=O [Example 3, lanreotide acetate] | 36
